Experimental data from ChEMBL document CHEMBL3046510, “Synthesis and Fungicidal Activities of 4,5-Dihydro-7H-pyrano[3,4-c]isoxazole Derivatives” (1999).

How the values were obtained:
Assay type in all cases: functional
Rhizoctonia solani = experiment: Fungicidal activity against Rhizoctonia solani infected on foliar spray based compound pre-treated third-leaf stage rice plants assessed as rice sheath blight disease control level at 250 ppm measured 5 days post fungal exposure relative to untreated control
Botrytis cinerea = experiment: Fungicidal activity against Botryotinia fuckeliana infected foliar spray based compound pre-treated first-leaf stage cucumber plants assessed as cucumber gray mold disease control level at 250 ppm measured 4 to 5 days post fungal exposure relative to untreated control
Puccinia recondita [1] = experiment: Fungicidal activity against Puccinia recondita infected foliar spray based compound pre-treated first-leaf stage wheat plants assessed as wheat leaf rust disease control level at 50 ppm measured 10 days post fungal exposure relative to untreated control
Puccinia recondita [2] = experiment: Fungicidal activity against Puccinia recondita infected foliar spray based compound pre-treated first-leaf stage wheat plants assessed as wheat leaf rust disease control level at 10 ppm measured 10 days post fungal exposure relative to untreated control
Puccinia recondita [3] = experiment: Fungicidal activity against Puccinia recondita infected foliar spray based compound pre-treated first-leaf stage wheat plants assessed as wheat leaf rust disease control level at 2 ppm measured 10 days post fungal exposure relative to untreated control
Blumeria graminis = experiment: Fungicidal activity against Blumeria graminis infected on foliar spray based compound pre-treated first-leaf stage 7 day old barley plants assessed as barley powdery mildew disease control level at 250 ppm measured 7 days post fungal exposure relative to untreated control
Puccinia recondita [4] = experiment: Fungicidal activity against Puccinia recondita infected foliar spray based compound pre-treated first-leaf stage wheat plants assessed as wheat leaf rust disease control level at 250 ppm measured 10 days post fungal exposure relative to untreated control
Phytophthora infestans = experiment: Fungicidal activity against Phytophthora infestans zoosporangia infected on foliar spray based compound pre-treated 14 days old tomato plants assessed as tomato late blight disease control level at 250 ppm measured 4 days post fungal exposure relative to untreated control

In the case of `Clc1ccc(C2OCCc3c2noc3CBr)cc1` (stereo not drawn), the Activity (Rhizoctonia solani) is reported as 0%, the Activity (Botrytis cinerea) is reported as 0% and the Activity (Puccinia recondita [1]) is reported as 90%. For the same compound, the Activity (Puccinia recondita [2]) was 53%, the Activity (Puccinia recondita [3]) was 50% and the Activity (Blumeria graminis) was 50%. For the same compound, the Activity (Puccinia recondita [4]) was 100% and the Activity (Phytophthora infestans) was 22%.
Work on `Clc1ccccc1C1OCCc2c1noc2CBr` (stereo not drawn) yielded an Activity (Rhizoctonia solani) of 41%, an Activity (Botrytis cinerea) of 52% and an Activity (Blumeria graminis) of 16%. For the same compound, the Activity (Puccinia recondita [4]) was 97% and the Activity (Phytophthora infestans) was 7%.
`O=Cc1onc2c1CCOC2c1ccc(Cl)cc1` (stereo not drawn) gave an Activity (Rhizoctonia solani) of 0%, an Activity (Botrytis cinerea) of 30% and an Activity (Blumeria graminis) of 0%. It also gave an Activity (Puccinia recondita [4]) of 0% and an Activity (Phytophthora infestans) of 19%.
`C=CCON=Cc1onc2c1CCOC2c1ccccc1Cl` (mixture of isomers) gave an Activity (Rhizoctonia solani) of 17%, an Activity (Botrytis cinerea) of 0% and an Activity (Blumeria graminis) of 80%. For the same compound, the Activity (Puccinia recondita [4]) was 46% and the Activity (Phytophthora infestans) was 14%.
In the case of `CON=Cc1onc2c1CCOC2c1ccc(Cl)cc1` (mixture of isomers), the Activity (Rhizoctonia solani) is reported as 65%, the Activity (Botrytis cinerea) is reported as 28% and the Activity (Blumeria graminis) is reported as 96%. The Activity (Puccinia recondita [4]) was 12% and the Activity (Phytophthora infestans) was 0%.
For `OCc1onc2c1CCOC2c1ccccc1Cl` (stereo not drawn), the Activity (Rhizoctonia solani) was 0%, the Activity (Botrytis cinerea) was 0% and the Activity (Blumeria graminis) was 0%. For the same compound, the Activity (Puccinia recondita [4]) was 10% and the Activity (Phytophthora infestans) was 0%.
With `O=Cc1onc2c1CCOC2c1ccccc1Cl` (stereo not drawn) the Activity (Rhizoctonia solani) was 17%, the Activity (Botrytis cinerea) was 0% and the Activity (Blumeria graminis) was 83%. It also gave an Activity (Puccinia recondita [4]) of 53% and an Activity (Phytophthora infestans) of 21%.
Work on `CCON=Cc1onc2c1CCOC2c1ccc(Cl)cc1` (mixture of isomers) yielded an Activity (Rhizoctonia solani) of 55%, an Activity (Botrytis cinerea) of 10% and an Activity (Blumeria graminis) of 81%. It also gave an Activity (Puccinia recondita [4]) of 52% and an Activity (Phytophthora infestans) of 14%.
With `Clc1ccccc1C1OCCc2c1noc2COC1CCCCO1` (stereo not drawn) the Activity (Rhizoctonia solani) was 47%, the Activity (Botrytis cinerea) was 0% and the Activity (Blumeria graminis) was 16%. It also gave an Activity (Puccinia recondita [4]) of 86% and an Activity (Phytophthora infestans) of 0%.
With `OCc1onc2c1CCOC2c1ccc(Cl)cc1` (stereo not drawn) the Activity (Rhizoctonia solani) was 0%, the Activity (Botrytis cinerea) was 0% and the Activity (Blumeria graminis) was 3%. It also gave an Activity (Puccinia recondita [4]) of 0% and an Activity (Phytophthora infestans) of 2%.
For `ON=Cc1onc2c1CCOC2c1ccccc1Cl` (stereo not drawn), the Activity (Rhizoctonia solani) was 52%, the Activity (Botrytis cinerea) was 5% and the Activity (Blumeria graminis) was 0%. For the same compound, the Activity (Puccinia recondita [4]) was 0% and the Activity (Phytophthora infestans) was 42%.
Work on `CCON=Cc1onc2c1CCOC2c1ccccc1Cl` (mixture of isomers) yielded an Activity (Rhizoctonia solani) of 64%, an Activity (Botrytis cinerea) of 5% and an Activity (Blumeria graminis) of 91%. It also gave an Activity (Puccinia recondita [4]) of 76% and an Activity (Phytophthora infestans) of 78%.
`C=CCON=Cc1onc2c1CCOC2c1ccc(Cl)cc1` (mixture of isomers) was tested, and the Activity (Rhizoctonia solani) was 75%, the Activity (Botrytis cinerea) was 10% and the Activity (Blumeria graminis) was 100%. The Activity (Puccinia recondita [4]) was 96% and the Activity (Phytophthora infestans) was 7%.
`Clc1ccc(C2OCCc3c2noc3COC2CCCCO2)cc1` (stereo not drawn) showed an Activity (Rhizoctonia solani) of 0%, an Activity (Botrytis cinerea) of 0% and an Activity (Blumeria graminis) of 0%. For the same compound, the Activity (Puccinia recondita [4]) was 0% and the Activity (Phytophthora infestans) was 9%.
With `CON=Cc1onc2c1CCOC2c1ccccc1Cl` (stereo not drawn) the Activity (Rhizoctonia solani) was 29%, the Activity (Botrytis cinerea) was 0% and the Activity (Blumeria graminis) was 41%. It also gave an Activity (Puccinia recondita [4]) of 0% and an Activity (Phytophthora infestans) of 50%.
`ON=Cc1onc2c1CCOC2c1ccc(Cl)cc1` (mixture of isomers) was tested, and the Activity (Rhizoctonia solani) was 45%, the Activity (Botrytis cinerea) was 0% and the Activity (Blumeria graminis) was 0%. For the same compound, the Activity (Puccinia recondita [4]) was 86% and the Activity (Phytophthora infestans) was 10%.
